Experimental data taken from publication PMC9784827, “In Combo Studies for the Optimization of 5-Aminoanthranilic Acid Derivatives as Potential Multitarget Drugs for the Management of Metabolic Syndrome” (Pharmaceuticals, 2022).
Where two headings read alike, the source gives them in different places.

Legend:
[1] = set-up: method as in PMID 20072920; details: CUPRAC; cited from earlier work
[2] = test system: diet-induced MetS model; test: In vivo diet-induced (high-fructose high-fat) MetS model; set-up: species or system Sprague–Dawley male rats; details: MetS rats, 10 mg/kg p.o. for 14 days, vs untreated group; for effect on triglycerides and glucose (TyG) index: TyG = Ln(triglyceride x glucose/2); for effect on glucose levels / effect on total cholesterol levels / effect on triglyceride levels / effect on body weight: HFHF diet; for effect on glucose levels / effect on total cholesterol levels / effect on triglyceride levels: serum
Description: In the diet-induced model, MetS was generated through 12 weeks of the consumption of a high-fructose high-fat (HFHF) diet per the previous experience in our group. The control group received a standard diet during the same period. After this induction phase, the animals of the standard diet were randomly allocated into two groups; one group (C/treated groups) would receive treatment with compounds 2, 3, or 4 for 14 days (10 mg/kg, p.o.), and the other group would receive no treatment (C groups). The same allocation was made for the diet-induced MetS group (the MetS group received no treatment, while MetS/treated groups received compound 2, 3, or 4, 10 mg/kg, p.o. for 14 days), as depicted in Figure 4.
For the in vivo experimentation, eighty Sprague–Dawley male rats weighing 250 ± 25 g were housed in acrylic boxes and treated following the recommendations and requirements of the NOM-062-ZOO-1999 (Official Mexican Standard for the Production, Care, and Use of Laboratory Animals). They were kept in a clear-air room maintained on an artificial 12 h light/dark cycle and were given ad libitum access to food and water. The protocol was approved by the Institutional Subcommittee for the Care and Use of Laboratory Animals (SICUAL) with the registration number FMM/SICUAL/006/2017 (date of approval, 30 August 2017).
The animals were randomly allocated to a group (control groups) that was fed on a regular Chow commercial diet (Purina-Rodent Laboratory Chow-5001 3.310 kcal/g) or to a group (MetS groups) that was supplied with a high-fructose and high-fat diet (4.161 kcal/g) for the generation of MetS. From our own experience, MetS is established after twelve weeks with this diet. The weight of each animal was recorded at the beginning of the study and every week after the completion of the induction period. In weeks nine and twelve, the glucose, total cholesterol, and triglyceride levels were monitored in fasting conditions of 12 h, using an Accutrend plus monitor (Roche). Following the MetS induction phase, the control and MetS groups were rearranged into the following groups: (1) control (CM, regular diet + no treatment n = 10); (2) MetS (HFHF diet + no treatment, n = 10); (3) control + compound 2 (C/2 regular diet + treatment with 2, n = 10); (4) MetS + compound 2 (MetS/2, HFHF diet + treatment with 2, n = 10); (5) control + compound 3 (C/3, regular diet + treatment with […], n = 10); (6) MetS + compound 3 (MetS/3, HFHF diet + treatment with 3, n = 10); (7) control + compound 4 (C/4, regular diet + treatment with 4, n = 10); (8) MetS + compound 4 (MetS/4, HFHF diet + treatment with 4, n = 10). The treatment stage lasted 14 days, and the animals retained the same diet they had during the induction to exclude the effect of diet change. All the animals received 100 μL of a 1% Kolliphor EL mixture in water with or without the tested compound (10 mg/Kg) via nasogastric. Animals were sacrificed by decapitation. The blood was collected and centrifuged at 1372× g for 15 min at 4 °C. The serum was gathered and stored at −80 °C until the determination of metabolic parameters.
The animals’ serum was defrosted, and triacylglyceride, cholesterol, and glucose levels were determined on an Architect c8000 system (Abbott, Wiesbaden, Germany). Statistical analysis was performed using one-way ANOVA, followed by Dunnett’s multiple comparisons tests employing GraphPad Prism version 9.4.1 (GraphPad Software, La Jolla, CA, USA). Differences were considered significant when p ≤ 0.05.

[3] = biological target: T1, HMG-CoA reductase (Homo sapiens, UniProt P04035); test: In vitro HMG-CoA reductase inhibition (HMG-CoA Reductase Assay Kit, Sigma-Aldrich CS1090); assay type: biochemical; details: for inhibition at 20 µM: initial screening, read-out: inhibition of HMG-CoA reductase enzymatic activity
T1 construct: purchased Sigma-Aldrich CS1090
T1 sequence (P04035 426-888 limits assumed): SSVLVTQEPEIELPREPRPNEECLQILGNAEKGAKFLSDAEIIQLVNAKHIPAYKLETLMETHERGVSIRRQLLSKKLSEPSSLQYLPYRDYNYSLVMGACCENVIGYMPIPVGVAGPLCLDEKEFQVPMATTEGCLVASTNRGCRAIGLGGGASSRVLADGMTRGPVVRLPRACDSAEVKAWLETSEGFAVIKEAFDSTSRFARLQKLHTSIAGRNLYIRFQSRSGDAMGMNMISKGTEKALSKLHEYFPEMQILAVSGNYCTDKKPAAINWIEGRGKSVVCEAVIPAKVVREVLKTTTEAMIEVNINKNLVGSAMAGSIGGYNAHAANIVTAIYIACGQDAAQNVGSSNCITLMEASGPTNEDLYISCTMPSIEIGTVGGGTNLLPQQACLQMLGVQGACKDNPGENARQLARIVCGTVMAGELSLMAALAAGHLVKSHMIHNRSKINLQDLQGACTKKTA
Description: (§1) The HMG-CoA Reductase Assay Kit from Sigma-Aldrich (catalog number CS1090, St. Louis, MO, USA) was used to determine the inhibitory properties of compounds 3 and 4 over enzyme activity, using the instructions provided by the fabricant. […] For IC50 determination of compound 3, final concentrations of 2.5, 5.0, 10.0, and 20 μM were employed by triplicate. The Total Antioxidant Capacity Assay Kit from Sigma-Aldrich (catalog number MAK187, St. Louis, MO, USA) was used for the determination of in vitro antioxidant activity following the manufacturer’s instructions by triplicate.

[4] = Total antioxidant capacity, CUPRAC assay (Trolox equivalent antioxidant capacity); details: triplicate
Description: as §1

[5] = test system: diet-induced MetS model; set-up: method as in PMID 34577613; details: in vivo diet-induced MetS model, previous study ref 38; cited from earlier work
[6] = biological target: T1, HMG-CoA reductase; set-up: method as in earlier work; details: same commercial kit, ref 73 (Mendieta et al.); cited from earlier work

COc1cc(/C=C/C(=O)O)ccc1O [ferulic acid]
TEAC (Trolox equivalent antioxidant capacity) [1]: 1.20

COc1ccc(C(=O)Nc2ccc(NC(=O)c3ccc(OC)c(OC)c3)c(C(=O)O)c2)cc1OC [Compound 3, 2,5-Bis(3,4-dimethoxybenzamido)benzoic Acid]
effect on triglycerides and glucose (TyG) index [2]: decrease | effect on glucose levels [2]: reduced | effect on total cholesterol levels [2]: reduced | effect on triglyceride levels [2]: reduced | effect on body weight [2]: reduced | inhibition at 20 µM [3]: 94% | IC50 ([3]; concentrations 2.5, 5.0, 10.0 and 20 μM, triplicate): 8.89 ± 0.51 µM | TEAC (Trolox equivalent antioxidant capacity) [4]: 1.01 ± 0.06

COc1ccc(C(=O)Nc2ccc(NC(=O)c3ccc(OC)c(OC)c3)c(C(=O)NCc3ccc(C(F)(F)F)cc3)c2)cc1OC [Compound 1]
effect on blood pressure [5]: diminished | effect on glucose serum levels [5]: diminished | effect on total cholesterol serum levels [5]: diminished

O=C(O[C@@H]1Cc2c(O)cc(O)cc2O[C@@H]1c1ccc(O)c(O)c1)c1cc(O)c(O)c(O)c1 [epicatechin gallate]
TEAC (Trolox equivalent antioxidant capacity) [1]: above 3.0

COc1ccc(/C=C/C(=O)Nc2ccc(NC(=O)/C=C/c3ccc(OC)c(OC)c3)c(C(=O)NCc3ccc(C(F)(F)F)cc3)c2)cc1OC [Compound 4, (2E,2′E)-N,N′-(2-((4-(Trifluoromethyl)benzyl)carbamoyl)-1,4-phenylene)bis(3-(3,4-dimethoxyphenyl)acrylamide)]
effect on triglycerides and glucose (TyG) index [2]: decrease | effect on total cholesterol levels [2]: not significant | effect on body weight [2]: not significant | inhibition at 20 µM [3]: 46% | TEAC (Trolox equivalent antioxidant capacity) [4]: 1.33 ± 0.04 | melting point: > 250 °C

C/C=C/c1cc(OC)c(OC)cc1OC [α-asarone]
IC50 [6]: 5.86 µM

COc1ccc(C(=O)Nc2ccccc2C(=O)NCc2ccc(C(F)(F)F)cc2)cc1OC [Compound 2]
effect on glucose levels [2]: did not affect | effect on total cholesterol levels [2]: did not affect | effect on triglyceride levels [2]: did not affect | effect on body weight [2]: did not affect

O=c1c(O)c(-c2ccc(O)c(O)c2)oc2cc(O)cc(O)c12 [quercetin]
TEAC (Trolox equivalent antioxidant capacity) [1]: above 3.0
